In ChEMBL document CHEMBL1201862, “PubChem BioAssay data set” (2004):
Activity calls are given as the source filed them.

Key:
[1] = Luminescence Cell-Based Dose Retest to Confirm Inhibitors of Cancer Stem Cells. [Related pubchem assays (depositor defined):AID2717, AID2721]; format: functional; settings: Homo sapiens
[2] = biological target: FAD-linked sulfhydryl oxidase ALR (Homo sapiens, UniProt P55789); experiment: ALR-catalysed DTT oxidation blockers – biochemical, H2O2 detection, luminescence, cherry-pick, dose response (AID 493248)
[3] = A cytotoxicity screen of small molecule inhibitors of the PhoP region in Salmonella typhi identified in the primary screen. [Related pubchem assays: 1850, 1864, 1985 ]; format: functional
[4] = M. tuberculosis H37Rv growth inhibitors, H37Rv strain (AID 1626); format: functional
[5] = biological target: T1, Mannose-6-phosphate isomerase (Homo sapiens, UniProt P34949); experiment: MPI enzyme activity inhibition – biochemical, fluorescence intensity, coupled assay, primary screen (AID 1209)
T1 sequence (P34949 whole entry): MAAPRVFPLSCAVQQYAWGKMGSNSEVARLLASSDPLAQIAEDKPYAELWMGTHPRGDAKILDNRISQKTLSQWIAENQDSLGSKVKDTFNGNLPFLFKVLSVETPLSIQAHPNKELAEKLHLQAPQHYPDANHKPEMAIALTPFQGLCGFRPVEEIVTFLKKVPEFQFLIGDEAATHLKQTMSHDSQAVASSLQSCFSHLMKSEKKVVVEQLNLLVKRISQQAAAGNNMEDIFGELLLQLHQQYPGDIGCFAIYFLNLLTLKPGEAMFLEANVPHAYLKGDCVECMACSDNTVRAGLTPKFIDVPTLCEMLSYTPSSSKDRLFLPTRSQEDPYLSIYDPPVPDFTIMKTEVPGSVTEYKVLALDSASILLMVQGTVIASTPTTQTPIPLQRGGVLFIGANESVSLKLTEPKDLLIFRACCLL

[6] = Luminescence Cell-Based Dose Response HTS to Identify Activators of Luciferase Translation or Activity in H4 […] Cells. [Related pubchem assays: 1829 (Project Summary), 1814 (Primary HTS)]; format: functional
H4 = experiment: Luminescence Cell-Based Dose Response HTS to Identify Activators of 5'UTR Stem-Loop Driven Prion Protein mRNA Translation in H4 Neuroglioblastoma Cells. [Related pubchem assays: 1829 (Project Summary), 1814 (Primary HTS)]; format: functional; settings: Homo sapiens
[7] = biological target: T1, Mannose-6-phosphate isomerase; experiment: MPI inhibition at elevated mannose 6-phosphate – biochemical, fluorescence intensity, high mannose 6-phosphate, primary screen (AID 1220)
[8] = Luminescence Cell-Based Dose Confirmation HTS to Identify Activators of 5'UTR Stem-Loop Driven Alpha-Synuclein mRNA Translation in H4 Neuroglioblastoma Cells. [Related pubchem assays: 1829 (Project Summary), 1814 (Primary HTS)]; format: functional
Caspase-3 = biological target: T2, Caspase-3 (Homo sapiens, UniProt P42574); format: functional;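 further: Dose-response selectivity test against caspase-3 for candidate inhibitors of sentrin-specific proteases (SENPs)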
T2 sequence (P42574 whole entry): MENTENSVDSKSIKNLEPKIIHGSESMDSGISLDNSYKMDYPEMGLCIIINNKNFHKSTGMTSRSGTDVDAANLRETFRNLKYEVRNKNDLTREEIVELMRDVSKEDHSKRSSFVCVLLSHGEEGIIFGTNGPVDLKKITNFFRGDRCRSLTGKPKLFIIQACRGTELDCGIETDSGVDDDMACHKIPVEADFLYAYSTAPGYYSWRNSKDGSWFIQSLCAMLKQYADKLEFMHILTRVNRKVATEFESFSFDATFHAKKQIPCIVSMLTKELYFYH

[9] = biological target: T3, Sentrin-specific protease 8 (Homo sapiens, UniProt Q96LD8); format: functional;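 further: luminescence read-out of SENP8 inhibition, dose-response confirmation following an ultra-high-throughput screen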
T3 sequence (Q96LD8 whole entry): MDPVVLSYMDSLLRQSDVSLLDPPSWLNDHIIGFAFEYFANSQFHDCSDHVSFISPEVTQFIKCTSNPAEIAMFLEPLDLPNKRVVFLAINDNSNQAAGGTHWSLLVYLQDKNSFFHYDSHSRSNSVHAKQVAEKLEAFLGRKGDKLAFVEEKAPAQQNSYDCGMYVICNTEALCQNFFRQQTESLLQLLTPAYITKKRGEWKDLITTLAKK

[10] = biological target: T4, Sentrin-specific protease 6 (Homo sapiens, UniProt Q9GZR1); format: functional;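 further: Luminescence-based dose-response confirmatory assay of SENP6 inhibition, following up an ultra-high-throughput screen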
T4 sequence (Q9GZR1 whole entry): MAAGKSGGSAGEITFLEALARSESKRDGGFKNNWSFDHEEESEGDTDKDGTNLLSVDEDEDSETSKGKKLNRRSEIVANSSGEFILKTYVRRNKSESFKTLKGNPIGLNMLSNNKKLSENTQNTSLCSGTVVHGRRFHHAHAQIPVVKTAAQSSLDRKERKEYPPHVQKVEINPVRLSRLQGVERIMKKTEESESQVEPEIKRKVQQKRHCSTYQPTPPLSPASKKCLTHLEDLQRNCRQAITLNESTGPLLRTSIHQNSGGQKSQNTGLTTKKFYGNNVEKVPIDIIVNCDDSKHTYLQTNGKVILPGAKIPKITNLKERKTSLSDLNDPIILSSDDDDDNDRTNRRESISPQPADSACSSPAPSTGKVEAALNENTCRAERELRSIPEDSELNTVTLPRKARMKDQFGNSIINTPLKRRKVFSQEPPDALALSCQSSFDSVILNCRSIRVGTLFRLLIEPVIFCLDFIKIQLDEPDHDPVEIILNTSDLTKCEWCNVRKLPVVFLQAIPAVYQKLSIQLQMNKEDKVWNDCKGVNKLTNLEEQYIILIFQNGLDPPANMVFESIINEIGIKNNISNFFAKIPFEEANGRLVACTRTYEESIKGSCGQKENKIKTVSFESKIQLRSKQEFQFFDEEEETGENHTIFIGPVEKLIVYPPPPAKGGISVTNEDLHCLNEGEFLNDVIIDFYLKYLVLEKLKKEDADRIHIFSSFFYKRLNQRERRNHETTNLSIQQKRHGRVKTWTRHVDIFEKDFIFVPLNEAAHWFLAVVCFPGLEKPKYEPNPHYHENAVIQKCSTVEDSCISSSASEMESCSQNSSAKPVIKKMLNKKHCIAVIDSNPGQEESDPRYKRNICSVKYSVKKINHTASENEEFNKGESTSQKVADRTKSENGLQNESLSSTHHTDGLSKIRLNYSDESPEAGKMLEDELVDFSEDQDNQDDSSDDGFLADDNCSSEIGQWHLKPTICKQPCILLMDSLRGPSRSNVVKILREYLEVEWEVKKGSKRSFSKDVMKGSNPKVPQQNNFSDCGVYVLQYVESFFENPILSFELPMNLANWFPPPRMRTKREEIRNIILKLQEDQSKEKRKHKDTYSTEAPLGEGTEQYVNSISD

[11] = Luminescence Cell-Based Dose Response to Identify Activators of 5'UTR Stem-Loop Driven Prion Protein mRNA Translation in H4-C Neuroglioblastoma Cells. [Related pubchem assays: 1829 (Project Summary), 1814 (Primary HTS)]; format: functional
[12] = biological target: T5, Sentrin-specific protease 7 (Homo sapiens, UniProt Q9BQF6); format: functional;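 further: Luminescence-based dose-response confirmation of ultra-high-throughput screening hits, measuring inhibition of SENP7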
T5 sequence (Q9BQF6 whole entry): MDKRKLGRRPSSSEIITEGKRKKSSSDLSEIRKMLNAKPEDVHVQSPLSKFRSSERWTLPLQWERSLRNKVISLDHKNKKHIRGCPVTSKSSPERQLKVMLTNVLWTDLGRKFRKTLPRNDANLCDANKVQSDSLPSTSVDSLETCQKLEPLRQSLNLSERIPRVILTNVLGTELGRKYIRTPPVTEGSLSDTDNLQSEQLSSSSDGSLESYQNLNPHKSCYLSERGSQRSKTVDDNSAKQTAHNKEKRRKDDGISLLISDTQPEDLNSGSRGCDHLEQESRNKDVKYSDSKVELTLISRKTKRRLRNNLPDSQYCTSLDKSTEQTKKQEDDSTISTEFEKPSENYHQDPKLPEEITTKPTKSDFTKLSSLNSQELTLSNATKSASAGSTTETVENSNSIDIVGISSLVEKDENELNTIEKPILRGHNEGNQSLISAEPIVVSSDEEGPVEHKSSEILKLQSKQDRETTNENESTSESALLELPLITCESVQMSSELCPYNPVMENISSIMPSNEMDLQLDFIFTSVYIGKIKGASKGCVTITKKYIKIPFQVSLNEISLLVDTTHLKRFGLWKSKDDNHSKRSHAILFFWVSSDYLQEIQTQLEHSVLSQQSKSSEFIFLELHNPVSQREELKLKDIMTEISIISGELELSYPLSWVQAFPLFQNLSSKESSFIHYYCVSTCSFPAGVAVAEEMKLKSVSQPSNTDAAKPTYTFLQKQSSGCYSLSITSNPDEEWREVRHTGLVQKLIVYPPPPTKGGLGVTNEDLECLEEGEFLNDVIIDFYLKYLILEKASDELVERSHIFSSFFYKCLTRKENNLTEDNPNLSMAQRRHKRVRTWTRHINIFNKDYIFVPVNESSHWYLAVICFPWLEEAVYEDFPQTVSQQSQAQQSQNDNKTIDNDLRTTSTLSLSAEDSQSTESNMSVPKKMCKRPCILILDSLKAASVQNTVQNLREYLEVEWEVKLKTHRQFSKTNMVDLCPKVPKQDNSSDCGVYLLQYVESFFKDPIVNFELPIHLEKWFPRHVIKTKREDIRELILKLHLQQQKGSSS

[13] = Luminescence Cell-Based Dose Response to Identify Activators of Luciferase Translation or Activity in H4-C Neuroglioblastoma Cells. [Related pubchem assays: 1829 (Project Summary), 1814 (Primary HTS)]; format: functional
[14] = Luminescence Cell-Based Dose Confirmation to Identify Activators of 5'UTR Stem-Loop Driven Alpha-Synuclein mRNA Translation in H4 Neuroglioblastoma Cells. [Related pubchem assays: 1829 (Project Summary), 1814 (Primary HTS)]; format: functional

Sequence of FAD-linked sulfhydryl oxidase ALR (P55789 whole entry): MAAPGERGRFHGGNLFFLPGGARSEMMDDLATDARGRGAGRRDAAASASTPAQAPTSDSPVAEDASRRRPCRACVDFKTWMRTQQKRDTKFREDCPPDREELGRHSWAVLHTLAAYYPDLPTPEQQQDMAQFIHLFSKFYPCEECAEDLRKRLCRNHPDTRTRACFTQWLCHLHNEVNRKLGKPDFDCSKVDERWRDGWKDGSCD

With `O=C(NCc1ccco1)c1ccc2c(c1)N(Cc1ccccc1)CCS2` the AC50 [1] was 11.3 µM (active), the AC50 [2] was 81.2 µM (active) and the EC50 [3] was > 50 µM (active).
In the case of `CCOC(=O)c1ccc(NC(C)=C2C(=O)NC(=O)NC2=O)cc1`, the IC50 [4] is reported as > 100 µM (active).
In the case of `COc1ccc(NC2=CC(c3ccc(OC)cc3)N(c3ccc(OC)cc3)C2=O)cc1` (centres undefined), the IC50 [4] is reported as > 100 µM (active).
For `c1ccc(CSCc2cn3ccsc3n2)cc1`, the IC50 [5] was > 50 µM (not active), the EC50 [6] was 40.7 µM (active) and the EC50 (H4) was 7.85 µM (active). For the same compound, the IC50 [7] was > 50 µM (not active) and the EC50 [8] was 0.562 µM (active).
In the case of `CCCCC(=O)Nc1ccc2c(c1)oc1ccccc12`, the IC50 [4] is reported as > 100 µM (active).
For `O=C1c2ccccc2C(=O)N1CCSc1ccccc1`, the IC50 (Caspase-3) was 14.5 µM (active), the IC50 [9] was 35 µM (active) and the IC50 [10] was 30.4 µM (active). The EC50 [11] was 1.41 µM (active), the IC50 [12] was 9.56 µM (active) and the EC50 [13] was 0.42 µM (active). For the same compound, the EC50 [14] was 0.279 µM (active), the EC50 [6] was 0.18 µM (active) and the EC50 (H4) was < 0.1 µM (active). The EC50 [8] was 21.9 µM (active).
In the case of `CC(C)CCSc1cc(NCCO)c([N+](=O)[O-])c2nonc12`, the IC50 [5] is reported as > 50 µM (not active) and the IC50 [7] is reported as > 50 µM (not active).
In the case of `C=CCSc1nnc(NC(=O)CSc2nc3ccccc3o2)s1`, the EC50 [3] is reported as > 50 µM (active).
